Data published in US9005575B2, “Arg-Gly-Asp-conjugated alpha-melanocyte stimulating hormone hybrid peptide for use in diagnosing and treating melanoma, including metastatic melanoma and methods related to same” (STC.UNM, priority 2009, dated 2015).
Read-outs that look alike come from different tables or passages of the source. Positions of bridges follow the written chain, without caps; N, C: chain ends. Non-standard residues stand in square brackets, D forms with d. Residues, ends and D or L forms follow the SMILES beside them.

Experiment: Biodistribution in B16/F1 melanoma-bearing C57 mice
Assay type: in vivo
Settings: female, C57, mouse, iv, total radioactivity; for tissue uptake at 0.5 h / tissue to tissue ratio at 0.5 h: 0.5 h post-injection; for tissue uptake at 2 h / tissue to tissue ratio at 2 h: 2 h post-injection; for tissue uptake at 4 h / tissue to tissue ratio at 4 h: 4 h post-injection; for tissue uptake at 24 h / tissue to tissue ratio at 24 h: 24 h post-injection
Description: All the animal studies were conducted in compliance with Institutional Animal Care and Use Committee approval. The pharmacokinetics of ^99mTc-RGD-Lys-(Arg^11)CCMSH was determined in B16/F1 melanoma-bearing C57 female mice (Harlan, Indianapolis, Ind.). C57 mice were subcutaneously inoculated on the right flank with 1×10^6 B16/F1 cells. The weight of tumors reached approximately 0.2 g 10 days post cell inoculation. Each melanoma-bearing mouse was injected with 0.037 MBq of ^99mTc-RGD-Lys-(Arg^11)CCMSH via the tail vein. Groups of 5 mice were sacrificed at 0.5, 2, 4 and 24 h post-injection, and tumors and organs of interest were harvested, weighed and counted. Blood values were taken as 6.5% of the whole-body weight. The MC1 receptor specificity of the tumor uptake was determined at 2 h post-injection by co-injecting ^99mTc-RGD-Lys-(Arg^11)CCMSH with 10 μg (6.1 nmol) of unlabeled NDP-MSH, a linear α-MSH peptide analogue with picomolar affinity for the MC1 receptors present on murine melanoma cells. The co-injection of 3.5 μg (6.1 nmol) of RGD peptide was performed to determine the αvβ3 integrin specificity of the tumor uptake 2 h post-injection. Statistical analysis was performed using the Student's t-test for unpaired data.
All the animal studies were conducted in compliance with Institutional Animal Care and Use Committee approval. The pharmacokinetics of ^99mTc-RGD-Arg-(Arg^11)CCMSH was determined in B16/F1 melanoma-bearing C57 female mice (Harlan, Indianapolis, Ind.). C57 mice were subcutaneously inoculated on the right flank with 1×10^6 B16/F1 cells. The weight of tumors reached approximately 0.2 g 10 days post cell inoculation. Each melanoma-bearing mouse was injected with 0.037 MBq of ^99mTc-RGD-Arg-(Arg^11)CCMSH via the tail vein. Groups of 5 mice were sacrificed at 0.5, 2, 4 and 24 h post-injection, and tumors and organs of interest were harvested, weighed and counted. Blood values were taken as 6.5% of the whole-body weight. The MC1 receptor specificity of the tumor uptake was determined at 2 h post-injection by co-injecting ^99mTc-RGD-Arg-(Arg^11)CCMSH with 10 μg (6.1 nmol) of unlabeled NDP-MSH. The co-injection of 3.5 μg (6.1 nmol) of RGD peptide was performed to determine the αvβ3 integrin specificity of the tumor uptake at 2 h post-injection.

[1] = pancreas, 0.037 MBq, read-out: Pancreas, Percentage Injected Dose/gram
[2] = skin, 0.037 MBq, read-out: Skin, Percentage Injected Dose/gram
[3] = spleen, 0.037 MBq, read-out: Spleen, Percentage Injected Dose/gram
[4] = stomach, 0.037 MBq, read-out: Stomach, Percentage Injected Dose/gram
[5] = tumor, 0.037 MBq, read-out: Tumor, Percentage Injected Dose/gram
[6] = tumor/blood, 0.037 MBq, read-out: Uptake Ratio Tumor/Blood
[7] = tumor/kidneys, 0.037 MBq, read-out: Uptake Ratio Tumor/Kidneys
[8] = tumor/liver, 0.037 MBq, read-out: Uptake Ratio Tumor/Liver
[9] = tumor/lung, 0.037 MBq, read-out: Uptake Ratio Tumor/Lung
[10] = tumor/muscle, 0.037 MBq, read-out: Uptake Ratio Tumor/Muscle

For `CC(C)[C@H](NC(=O)[C@@H]1CCCN1C(=O)[C@H](CCCNC(=N)N)NC(=O)[C@H](CS)NC(=O)[C@H](Cc1c[nH]c2ccccc12)NC(=O)[C@H](CCCNC(=N)N)NC(=O)[C@@H](Cc1ccccc1)NC(=O)[C@H](Cc1c[nH]cn1)NC(=O)[C@H](CCC(=O)O)NC(=O)[C@H](CS)NC(=O)[C@H](CS)NC(=O)[C@H](CCCCN)NC(=O)[C@@H]1CC(=O)N[C@@H](CCCNC(=N)N)C(=O)NCC(=O)N[C@@H](CC(=O)O)C(=O)N[C@H](Cc2ccc(O)cc2)C(=O)N1)C(N)=O` [^99mTc-RGD-Lys-(Arg^11)CCMSH, metal not drawn] (RGD[dY]DKCCEH[dF]RWCRPV-NH2; lactam N-5), the tissue uptake (normal organs except kidneys, 0.037 MBq, after 2 h post-injection, read-out: Normal organ uptakes except for the kidneys) was less than 3.2 %ID/g, the tissue uptake at 0.5 h [1] was 1.48 ± 1.24 %ID/g and the tissue uptake at 2 h [1] was 0.72 ± 0.53 %ID/g. It also gave a tissue uptake at 4 h [1] of 0.52 ± 0.41 %ID/g, a tissue uptake at 24 h [1] of 0.25 ± 0.06 %ID/g and a tissue uptake at 2 h (pancreas, NDP blockade (10 μg NDP-MSH co-injected), read-out: Pancreas, Percentage Injected Dose/gram) of 0.44 ± 0.37 %ID/g. For the same molecule, the tissue uptake at 2 h (pancreas, RGD blockade (3.5 μg RGD co-injected), read-out: Pancreas, Percentage Injected Dose/gram) was 0.35 ± 0.19 %ID/g, the tissue uptake at 0.5 h [2] was 4.53 ± 0.88 %ID/g and the tissue uptake at 2 h [2] was 1.52 ± 0.66 %ID/g. It also gave a tissue uptake at 4 h [2] of 1.17 ± 0.61 %ID/g, a tissue uptake at 24 h [2] of 0.78 ± 0.19 %ID/g and a tissue uptake at 2 h (skin, NDP blockade (10 μg NDP-MSH co-injected), read-out: Skin, Percentage Injected Dose/gram) of 1.14 ± 0.38 %ID/g. It also gave a tissue uptake at 2 h (skin, RGD blockade (3.5 μg RGD co-injected), read-out: Skin, Percentage Injected Dose/gram) of 0.81 ± 0.13 %ID/g, a tissue uptake at 0.5 h [3] of 2.18 ± 0.88 %ID/g and a tissue uptake at 2 h [3] of 1.23 ± 0.62 %ID/g. The tissue uptake at 4 h [3] was 1.14 ± 0.16 %ID/g, the tissue uptake at 24 h [3] was 0.88 ± 0.3 %ID/g and the tissue uptake at 2 h (spleen, NDP blockade (10 μg NDP-MSH co-injected), read-out: Spleen, Percentage Injected Dose/gram) was 0.75 ± 0.37 %ID/g. The tissue uptake at 2 h (spleen, RGD blockade (3.5 μg RGD co-injected), read-out: Spleen, Percentage Injected Dose/gram) was 0.94 ± 0.3 %ID/g, the tissue uptake at 0.5 h [4] was 7.61 ± 1.98 %ID/g and the tissue uptake at 2 h [4] was 2.57 ± 0.38 %ID/g. It also gave a tissue uptake at 4 h [4] of 2.46 ± 1.39 %ID/g, a tissue uptake at 24 h [4] of 0.91 ± 0.67 %ID/g and a tissue uptake at 2 h (stomach, NDP blockade (10 μg NDP-MSH co-injected), read-out: Stomach, Percentage Injected Dose/gram) of 2.43 ± 0.8 %ID/g. The tissue uptake at 2 h (stomach, RGD blockade (3.5 μg RGD co-injected), read-out: Stomach, Percentage Injected Dose/gram) was 2.64 ± 0.1 %ID/g, the tissue uptake at 0.5 h [5] was 11.1 ± 1.41 %ID/g and the tissue uptake at 2 h [5] was 14.8 ± 2.94 %ID/g. For the same molecule, the tissue uptake at 4 h [5] was 12.6 ± 2.53 %ID/g, the tissue uptake at 24 h [5] was 7.59 ± 2.04 %ID/g and the tissue uptake at 2 h (tumor, NDP blockade (10 μg NDP-MSH co-injected), read-out: Tumor, Percentage Injected Dose/gram) was 1.81 ± 0.64 %ID/g. The tissue uptake at 2 h (tumor, RGD blockade (3.5 μg RGD co-injected), read-out: Tumor, Percentage Injected Dose/gram) was 10.5 ± 1.18 %ID/g, the tissue to tissue ratio at 0.5 h [6] was 3.48 and the tissue to tissue ratio at 2 h [6] was 15.4. The tissue to tissue ratio at 4 h [6] was 25.1, the tissue to tissue ratio at 24 h [6] was 69 and the tissue to tissue ratio at 2 h (tumor/blood, NDP blockade (10 μg NDP-MSH co-injected), read-out: Uptake Ratio Tumor/Blood) was 5.66. The tissue to tissue ratio at 2 h (tumor/blood, RGD blockade (3.5 μg RGD co-injected), read-out: Uptake Ratio Tumor/Blood) was 19.8, the tissue to tissue ratio at 0.5 h [7] was 0.16 and the tissue to tissue ratio at 2 h [7] was 0.22. It also gave a tissue to tissue ratio at 4 h [7] of 0.18, a tissue to tissue ratio at 24 h [7] of 0.19 and a tissue to tissue ratio at 2 h (tumor/kidneys, NDP blockade (10 μg NDP-MSH co-injected), read-out: Uptake Ratio Tumor/Kidneys) of 0.03. For the same molecule, the tissue to tissue ratio at 2 h (tumor/kidneys, RGD blockade (3.5 μg RGD co-injected), read-out: Uptake Ratio Tumor/Kidneys) was 0.19, the tissue to tissue ratio at 0.5 h [8] was 2.75 and the tissue to tissue ratio at 2 h [8] was 4.68. The tissue to tissue ratio at 4 h [8] was 4.32, the tissue to tissue ratio at 24 h [8] was 4.39 and the tissue to tissue ratio at 2 h (tumor/liver, NDP blockade (10 μg NDP-MSH co-injected), read-out: Uptake Ratio Tumor/Liver) was 0.63. The tissue to tissue ratio at 2 h (tumor/liver, RGD blockade (3.5 μg RGD co-injected), read-out: Uptake Ratio Tumor/Liver) was 4.63, the tissue to tissue ratio at 0.5 h [9] was 2.08 and the tissue to tissue ratio at 2 h [9] was 11.8. For the same molecule, the tissue to tissue ratio at 4 h [9] was 11.8, the tissue to tissue ratio at 24 h [9] was 8.07 and the tissue to tissue ratio at 2 h (tumor/lung, NDP blockade (10 μg NDP-MSH co-injected), read-out: Uptake Ratio Tumor/Lung) was 1.38. The tissue to tissue ratio at 2 h (tumor/lung, RGD blockade (3.5 μg RGD co-injected), read-out: Uptake Ratio Tumor/Lung) was 9.38, the tissue to tissue ratio at 0.5 h [10] was 29.1 and the tissue to tissue ratio at 2 h [10] was 43.6. For the same molecule, the tissue to tissue ratio at 4 h [10] was 96.7, the tissue to tissue ratio at 24 h [10] was 33 and the tissue to tissue ratio at 2 h (tumor/muscle, NDP blockade (10 μg NDP-MSH co-injected), read-out: Uptake Ratio Tumor/Muscle) was 8.62. The tissue to tissue ratio at 2 h (tumor/muscle, RGD blockade (3.5 μg RGD co-injected), read-out: Uptake Ratio Tumor/Muscle) was 70.
